Test results published in patent publication US6737383B1, “Herbicidal oxadiazolidines” (priority 1999, dated 2004).

Columns and labels:
wild oat = experiment: Test B pre/postemergence wild oat; format: in vivo, Avena fatua
Description: (§1) Seeds of bedstraw (Galium aparine), blackgrass (Alopecurus myosuroides), surinam grass (Brachiaria decumbens), cocklebur (Xanthium strumarium), corn (Zea mays), crabgrass (Digitaria sanguinalis), giant foxtail (Setaria faberii), morningglory (Ipomoea hederacea), pigweed (Amaranthus retroflexus), rape (Brassica napus), soybean (Glycine max), sugar beet (Beta vulgaris), velvetleaf (Abutilon theophrasti), wheat (Triticum aestivum), wild oat (Avena fatua) and purple nutsedge (Cyperus rotundus) tubers were planted and treated preemnergence with test chemicals formulated in a non-phytotoxic solvent mixture which included a surfactant.
(§2) At the same time, these crop and weed species were also treated with postemergence applications of test chemicals formulated in the same manner. Plants ranged in height from 2 to 18 cm (1- to 4-leaf stage) for postemergence treatments. Plant species in the flood test consisted of rice (Oryza sativa), smallflower flatsedge (Cyperus difformis), duck salad (Heteranthera limosa) and bamyardgrass (Echinochloa crus-galli) grown to the 2-leaf stage for testing. Treated plants and controls were maintained in a greenhouse for twelve to sixteen days, after which all species were compared to controls and visually evaluated. Plant response ratings, summarized in Table B, are based on a scale of 0 to 10 where 0 is no effect and 10 is complete control. A dash (−) response means no test result.

cocklebur = experiment: Test B pre/postemergence cocklebur; format: in vivo, Xanthium strumarium
Description: as §1, §2

giant foxtail = experiment: Test B pre/postemergence giant foxtail; format: in vivo, Setaria faberii
Description: as §1, §2

surinam grass = experiment: Test B pre/postemergence surinam grass; format: in vivo, Brachiaria decumbens
Description: as §1, §2

wheat = experiment: Test B pre/postemergence wheat; format: in vivo, Triticum aestivum
Description: as §1, §2

soybean = experiment: Test B pre/postemergence soybean; format: in vivo, Glycine max
Outline: (§3)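 Herbicidal effect was estimated by eye on a ten-point control scale after plants spent twelve to sixteen days in a greenhouse following soil or foliar treatment. Foliar sprays targeted plants at one to four leaves; all doses were formulated in a non-phytotoxic solvent with surfactant.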

velvetleaf = experiment: Test B pre/postemergence velvetleaf; format: in vivo, Abutilon theophrasti
Outline: as §3

rape = experiment: Test B pre/postemergence rape; format: in vivo, Brassica napus
Description: as §1, §2

corn = experiment: Test B pre/postemergence corn; format: in vivo, Zea mays
Description: as §1, §2

bedstraw = experiment: Test B pre/postemergence bedstraw; format: in vivo, Galium aparine
Description: as §1, §2

purple nutsedge = experiment: Test B pre/postemergence purple nutsedge; format: in vivo, Cyperus rotundus
Description: as §1, §2

morningglory = experiment: Test B pre/postemergence morningglory; format: in vivo, Ipomoea hederacea
Description: as §1, §2

pigweed = experiment: Test B pre/postemergence pigweed; format: in vivo, Amaranthus retroflexus
Outline: as §3

blackgrass = experiment: Test B pre/postemergence blackgrass; format: in vivo, Alopecurus myosuroides
Outline: as §3

sugar beet = experiment: Test B pre/postemergence sugar beet; format: in vivo, Beta vulgaris
Description: as §1, §2

crabgrass = experiment: Test B pre/postemergence crabgrass; format: in vivo, Digitaria sanguinalis
Outline: as §3

[1] = Preemergence, Rate 62 g/ha, scale of 0 to 10 where 0 is no effect and 10 is complete control
[2] = Preemergence, Rate 250 g/ha, scale of 0 to 10 where 0 is no effect and 10 is complete control
[3] = Preemergence, Rate 500 g/ha, scale of 0 to 10 where 0 is no effect and 10 is complete control
[4] = Rate 125 g/ha, Preemergence, scale of 0 to 10 where 0 is no effect and 10 is complete control
[5] = Rate 500 g/ha, Postemergence, scale 0 to 10, 0 no effect, 10 complete control
[6] = Rate 62 g/ha, Postemergence, scale of 0 to 10 where 0 is no effect and 10 is complete control
[7] = Rate 125 g/ha, Postemergence, scale 0 to 10

SMILES: COC(=O)C=CCn1c(=O)on(C(=O)N(c2ccc(F)cc2)C(C)C)c1=O [Compound 263]
- Wild oats plant response rating (wild oat; [1]): 0
- Wild oats plant response rating (wild oat; [2]): 0
- Plant response rating, Wild oats (wild oat; [3]): 0
- Wild oats plant response rating (wild oat; [4]): 0
- Wild oats plant response rating (wild oat; [5]): 0
- Cocklebur plant response rating (cocklebur; [1]): 0
- Cocklebur plant response rating (cocklebur; [2]): 0
- Cocklebur plant response rating (cocklebur; [6]): 0
- Cocklebur plant response rating (cocklebur; [7]): 0
- Cocklebur plant response rating (cocklebur; [4]): 0
- Plant response rating (0 to 10; 0 is no effect, 10 is complete control), Cocklebur (cocklebur; Rate 250 g/ha, Postemergence): 0
- Cocklebur plant response rating (cocklebur; [5]): 0
- Giant foxtail plant response rating (giant foxtail; [1]): 2
- Giant foxtail plant response rating (giant foxtail; [2]): 9
- Plant response rating, Giant foxtail (giant foxtail; [3]): 9
- Giant foxtail plant response rating (giant foxtail; [4]): 9
- Plant response rating (0 to 10; 0 is no effect, 10 is complete control), Giant foxtail (giant foxtail; Rate 250 g/ha, Postemergence): 0
- Giant foxtail plant response rating (giant foxtail; [5]): 3
- B. signalgrass plant response rating (surinam grass; [1]): 0
- B. signalgrass plant response rating (surinam grass; [2]): 0
- Plant response rating, B. signalgrass (surinam grass; [3]): 0
- B. signalgrass plant response rating (surinam grass; [6]): 0
- B. signalgrass plant response rating (surinam grass; Rate 125 g/ha, Postemergence, scale 0 (no effect) to 10 (complete control)): 0
- B. signalgrass plant response rating (surinam grass; [4]): 0
- Plant response rating (0 to 10; 0 is no effect, 10 is complete control), B. signalgrass (surinam grass; Rate 250 g/ha, Postemergence): 0
- B. signalgrass plant response rating (surinam grass; [5]): 0
- Wheat plant response rating (wheat; [1]): 0
- Wheat plant response rating (wheat; [2]): 0
- Plant response rating, Wheat (wheat; [3]): 0
- Wheat plant response rating (wheat; [4]): 0
- Wheat plant response rating (wheat; [5]): 2
- Soybean plant response rating (soybean; [1]): 0
- Soybean plant response rating (soybean; [2]): 0
- Plant response rating, Soybean (soybean; [3]): 0
- Soybean plant response rating (soybean; [4]): 0
- Soybean plant response rating (soybean; [5]): 1
- Velvetleaf plant response rating (velvetleaf; [1]): 0
- Velvetleaf plant response rating (velvetleaf; [2]): 0
- Plant response rating, Velvetleaf (velvetleaf; [3]): 3
- Velvetleaf plant response rating (velvetleaf; [4]): 0
- Velvetleaf plant response rating (velvetleaf; [5]): 2
- Rape plant response rating (rape; [1]): 0
- Rape plant response rating (rape; [2]): 0
- Plant response rating, Rape (rape; [3]): 0
- Rape plant response rating (rape; [4]): 0
- Plant response rating (0 to 10; 0 is no effect, 10 is complete control), Rape (rape; Rate 250 g/ha, Postemergence): 0
- Rape plant response rating (rape; [5]): 0
- Corn plant response rating (corn; [1]): 0
- Corn plant response rating (corn; [2]): 0
- Plant response rating, Corn (corn; [3]): 0
- Corn plant response rating (corn; [6]): 0
- Corn plant response rating (corn; [7]): 0
- Corn plant response rating (corn; [4]): 0
- Plant response rating (0 to 10; 0 is no effect, 10 is complete control), Corn (corn; Rate 250 g/ha, Postemergence): 0
- Corn plant response rating (corn; [5]): 0
- Bedstraw plant response rating (bedstraw; [1]): 0
- Bedstraw plant response rating (bedstraw; [2]): 0
- Plant response rating, Bedstraw (bedstraw; [3]): 0
- Bedstraw plant response rating (bedstraw; [6]): 0
- Bedstraw plant response rating (bedstraw; [7]): 0
- Bedstraw plant response rating (bedstraw; [4]): 0
- Nutsedge plant response rating (purple nutsedge; [1]): 0
- Nutsedge plant response rating (purple nutsedge; [2]): 0
- Plant response rating, Nutsedge (purple nutsedge; [3]): 0
- Nutsedge plant response rating (purple nutsedge; [4]): 0
- Plant response rating (0 to 10; 0 is no effect, 10 is complete control), Nutsedge (purple nutsedge; Rate 250 g/ha, Postemergence): 0
- Nutsedge plant response rating (purple nutsedge; [5]): 0
- Morningglory plant response rating (morningglory; [1]): 0
- Morningglory plant response rating (morningglory; [2]): 0
- Plant response rating, Morningglory (morningglory; [3]): 0
- Morningglory plant response rating (morningglory; [4]): 0
- Plant response rating (0 to 10; 0 is no effect, 10 is complete control), Morningglory (morningglory; Rate 250 g/ha, Postemergence): 4
- Morningglory plant response rating (morningglory; [5]): 7
- Redroot pigweed plant response rating (pigweed; [1]): 0
- Redroot pigweed plant response rating (pigweed; [2]): 0
- Plant response rating, Redroot pigweed (pigweed; [3]): 0
- Redroot pigweed plant response rating (pigweed; [4]): 0
- Plant response rating (0 to 10; 0 is no effect, 10 is complete control), Redroot pigweed (pigweed; Rate 250 g/ha, Postemergence): 0
- Redroot pigweed plant response rating (pigweed; [5]): 0
- Blackgrass plant response rating (blackgrass; [1]): 0
- Blackgrass plant response rating (blackgrass; [2]): 0
- Plant response rating, Blackgrass (blackgrass; [3]): 0
- Blackgrass plant response rating (blackgrass; [6]): 0
- Blackgrass plant response rating (blackgrass; [7]): 0
- Blackgrass plant response rating (blackgrass; [4]): 0
- Plant response rating (0 to 10; 0 is no effect, 10 is complete control), Blackgrass (blackgrass; Rate 250 g/ha, Postemergence): 3
- Blackgrass plant response rating (blackgrass; [5]): 5
- Sugarbeets plant response rating (sugar beet; [1]): 0
- Sugarbeets plant response rating (sugar beet; [2]): 0
- Plant response rating, Sugarbeets (sugar beet; [3]): 0
- Sugarbeets plant response rating (sugar beet; [4]): 0
- Sugarbeets plant response rating (sugar beet; [5]): 0
- Crabgrass plant response rating (crabgrass; [1]): 0
- Crabgrass plant response rating (crabgrass; [2]): 0
- Plant response rating, Crabgrass (crabgrass; [3]): 2
- Crabgrass plant response rating (crabgrass; [4]): 0
- Plant response rating (0 to 10; 0 is no effect, 10 is complete control), Crabgrass (crabgrass; Rate 250 g/ha, Postemergence): 0
- Crabgrass plant response rating (crabgrass; [5]): 2
